Read-outs that look alike come from different tables or passages of the source.
Assays:
[1] = test system: Balb C 3T3 cells; assay: Cytotoxicity; conditions: 50 μM
[2] = In vitro metabolism in liver microsomes; conditions: dog liver microsomes, 10 μM
[3] = molecular target: CYP2C9 (Homo sapiens, UniProt P11712); assay: CYP inhibition, human liver microsomes; conditions: CYP2C9, tolbutamide to OH-tolbutamide, 10 µM
[4] = molecular target: CYP2D6 (Homo sapiens, UniProt P10635); assay: CYP inhibition, human liver microsomes; conditions: CYP2D6, dextromethorphan to O-desmethyldextromethorphan, 10 µM
Sequence of CYP2D6 (P10635 whole entry): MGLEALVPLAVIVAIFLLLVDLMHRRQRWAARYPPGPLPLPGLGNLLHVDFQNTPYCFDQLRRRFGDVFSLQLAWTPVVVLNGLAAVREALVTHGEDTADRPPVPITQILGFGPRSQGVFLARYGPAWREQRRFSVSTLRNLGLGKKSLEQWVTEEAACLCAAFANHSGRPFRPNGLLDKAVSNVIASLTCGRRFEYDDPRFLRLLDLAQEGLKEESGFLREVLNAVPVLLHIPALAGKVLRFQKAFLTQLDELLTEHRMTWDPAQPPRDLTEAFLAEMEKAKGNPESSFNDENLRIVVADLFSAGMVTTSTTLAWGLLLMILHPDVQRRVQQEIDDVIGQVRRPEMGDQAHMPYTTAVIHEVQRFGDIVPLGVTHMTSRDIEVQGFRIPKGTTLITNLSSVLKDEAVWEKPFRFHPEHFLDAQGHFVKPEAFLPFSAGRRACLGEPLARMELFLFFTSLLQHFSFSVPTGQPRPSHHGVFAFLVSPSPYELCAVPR

[5] = molecular target: T1, H2 (h) (Homo sapiens, UniProt P25021); assay: Radioligand binding
T1 construct: Cerep

[6] = molecular target: T2, NTS1 (NT1) (h) (Homo sapiens, UniProt P30989); assay: Radioligand binding
T2 construct: Cerep
T2 sequence (P30989 whole entry): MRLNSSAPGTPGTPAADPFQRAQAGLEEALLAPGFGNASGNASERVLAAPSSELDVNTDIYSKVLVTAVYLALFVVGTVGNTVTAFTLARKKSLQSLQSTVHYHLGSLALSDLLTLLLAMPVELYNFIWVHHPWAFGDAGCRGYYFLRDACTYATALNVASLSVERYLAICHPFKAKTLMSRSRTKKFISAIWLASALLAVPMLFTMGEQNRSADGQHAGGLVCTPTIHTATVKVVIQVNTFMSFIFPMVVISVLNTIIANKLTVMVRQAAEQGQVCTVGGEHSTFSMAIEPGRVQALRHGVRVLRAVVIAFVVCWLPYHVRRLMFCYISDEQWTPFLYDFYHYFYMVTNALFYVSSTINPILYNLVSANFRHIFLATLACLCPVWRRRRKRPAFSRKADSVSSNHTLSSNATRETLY

[7] = In vitro metabolism in liver microsomes; conditions: monkey liver microsomes, 10 μM
[8] = molecular target: T3, AT1 (h) (Homo sapiens, UniProt P30556); assay: Radioligand binding
T3 construct: Cerep (contract study)
T3 sequence (P30556 whole entry): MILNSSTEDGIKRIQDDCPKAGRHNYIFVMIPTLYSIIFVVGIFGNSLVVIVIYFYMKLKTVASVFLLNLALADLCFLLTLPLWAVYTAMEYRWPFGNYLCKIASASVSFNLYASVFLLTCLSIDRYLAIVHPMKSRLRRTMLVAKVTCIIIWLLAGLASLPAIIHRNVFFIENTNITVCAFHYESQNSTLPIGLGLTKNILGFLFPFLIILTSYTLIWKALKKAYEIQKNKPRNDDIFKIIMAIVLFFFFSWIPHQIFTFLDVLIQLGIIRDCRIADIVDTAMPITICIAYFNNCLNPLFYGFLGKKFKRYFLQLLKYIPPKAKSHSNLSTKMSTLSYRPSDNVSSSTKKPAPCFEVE

[9] = test system: P. falciparum strain Dd2; assay: Growth inhibition assay, asexual blood stages; type: cell-based, Plasmodium falciparum; conditions: for IC90: Plasmodium falciparum, DD2, 72 h; for absolute Hill coefficient: in vitro growth inhibition curves
[10] = molecular target: T4, ETA (h) (Homo sapiens, UniProt P25101); assay: Radioligand binding
T4 construct: Cerep
T4 sequence (P25101 21-427): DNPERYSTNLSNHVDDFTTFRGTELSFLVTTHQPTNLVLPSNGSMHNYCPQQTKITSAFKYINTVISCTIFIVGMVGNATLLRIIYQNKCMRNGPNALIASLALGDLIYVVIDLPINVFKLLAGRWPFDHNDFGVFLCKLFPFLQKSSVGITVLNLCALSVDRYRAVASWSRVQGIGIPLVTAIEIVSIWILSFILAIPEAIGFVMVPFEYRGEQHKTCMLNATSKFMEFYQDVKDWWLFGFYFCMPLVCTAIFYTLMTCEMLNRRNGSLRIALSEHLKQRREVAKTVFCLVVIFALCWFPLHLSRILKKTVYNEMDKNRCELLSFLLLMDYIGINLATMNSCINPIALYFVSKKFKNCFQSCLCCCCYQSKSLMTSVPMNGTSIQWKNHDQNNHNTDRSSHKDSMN

[11] = molecular target: T5, TP (h) (TXA2/PGH2) (Homo sapiens, UniProt P21731); assay: Radioligand binding
T5 construct: Cerep
T5 sequence (P21731 1-343): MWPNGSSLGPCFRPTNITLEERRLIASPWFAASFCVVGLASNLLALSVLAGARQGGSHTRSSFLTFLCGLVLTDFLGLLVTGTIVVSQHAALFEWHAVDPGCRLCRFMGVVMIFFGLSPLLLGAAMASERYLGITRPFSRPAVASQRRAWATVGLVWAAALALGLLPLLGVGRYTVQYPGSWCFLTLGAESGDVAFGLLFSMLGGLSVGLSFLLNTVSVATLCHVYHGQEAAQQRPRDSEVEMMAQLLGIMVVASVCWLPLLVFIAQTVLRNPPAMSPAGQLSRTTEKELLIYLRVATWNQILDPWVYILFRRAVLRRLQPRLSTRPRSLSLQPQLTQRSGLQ

[12] = molecular target: CYP2C8 (Homo sapiens, UniProt P10632); assay: CYP inhibition, human liver microsomes; conditions: CYP2C8, amodiaquine to Desethylamodiaquine, 10 µM
Sequence of CYP2C8 (P10632 whole entry): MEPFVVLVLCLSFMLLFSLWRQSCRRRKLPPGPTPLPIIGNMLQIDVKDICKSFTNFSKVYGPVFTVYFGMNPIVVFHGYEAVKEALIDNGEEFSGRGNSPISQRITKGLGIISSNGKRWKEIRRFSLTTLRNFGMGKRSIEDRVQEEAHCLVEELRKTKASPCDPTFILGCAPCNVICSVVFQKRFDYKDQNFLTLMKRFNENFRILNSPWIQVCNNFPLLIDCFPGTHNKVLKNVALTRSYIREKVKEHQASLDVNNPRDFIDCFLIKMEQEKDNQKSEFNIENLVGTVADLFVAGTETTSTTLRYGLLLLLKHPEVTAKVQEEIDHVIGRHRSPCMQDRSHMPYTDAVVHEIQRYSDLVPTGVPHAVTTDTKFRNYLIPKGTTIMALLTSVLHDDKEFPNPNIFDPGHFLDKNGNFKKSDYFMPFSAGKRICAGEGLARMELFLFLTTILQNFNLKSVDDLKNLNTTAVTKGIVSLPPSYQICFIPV

[13] = molecular target: CYP3A4 (Homo sapiens, UniProt P08684); assay: CYP inhibition, human liver microsomes; conditions: 10 µM
Sequence of CYP3A4 (P08684 whole entry): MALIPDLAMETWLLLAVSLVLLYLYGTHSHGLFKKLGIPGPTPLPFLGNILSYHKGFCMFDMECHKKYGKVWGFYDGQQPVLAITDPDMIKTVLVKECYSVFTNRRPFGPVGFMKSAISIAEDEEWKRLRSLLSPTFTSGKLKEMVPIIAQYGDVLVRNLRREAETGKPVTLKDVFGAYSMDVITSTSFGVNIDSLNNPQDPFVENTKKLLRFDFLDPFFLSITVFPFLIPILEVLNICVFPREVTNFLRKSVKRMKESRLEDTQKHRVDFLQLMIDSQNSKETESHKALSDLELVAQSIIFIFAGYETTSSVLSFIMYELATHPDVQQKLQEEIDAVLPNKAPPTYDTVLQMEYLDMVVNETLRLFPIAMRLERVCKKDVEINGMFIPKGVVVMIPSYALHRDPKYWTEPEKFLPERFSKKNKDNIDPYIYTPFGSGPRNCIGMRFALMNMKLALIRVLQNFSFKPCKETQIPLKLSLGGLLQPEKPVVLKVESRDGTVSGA

[14] = PK study; type: in vivo, mouse; conditions: for half-life: mouse; for MRT last: read-out: MRT0-t; for time of peak plasma concentration (Cmax): single i.p. dose in mice
Procedure: On the treatment day, all animals were weighed and the dosing volume was calculated for each individual animal according to its actual body weight. All animal were dosed once. Blood samples were taken at different time points and plasma was collected after centrifugation (10,000g, 10 min, 4 °C). Plasma samples were analysed by LC–MS/MS. […] All relevant observations were recorded. The PK studies in cynomolgus monkeys and beagle dogs were performed by the Laboratory of Pharmacology and Toxicology (LPT), Hamburg, and PK and toxicity studies in mice and rats were performed by the 4SC Discovery GmbH, Munich. PK parameters were obtained by a non-compartment analysis, using Kinetica 4.1 (Thermo Scientific).

[15] = test system: BZD (central); assay: Radioligand binding
[16] = test system: 13 human cytochrome P450 enzymes; assay: Inhibition of cytochrome P450 enzymes, whole panel; conditions: 10 μM
[17] = test system: late stage (IV and V) gametocytes, NF54^Pfs16; assay: Gametocytocidal activity, luciferase assay; type: cell-based; conditions: Plasmodium falciparum, 72 h
Procedure: (§1) Activity against early- and late-stage gametocytes was determined in miniaturized 384-wells plate assays as previously described. Briefly, gametocytes from a recombinant line NF54^Pfs16, expressing a green fluorescent protein–luciferase reporter gene under the gametocyte-specific Pfs16 promoter were induced and purified as previously described; gametocytes were then treated either on day 1 (stage I gametocytes) or day 8 of gametocytogenesis (stage IV gametocytes) with serially diluted SC81458 or SC83288 to achieve a final top concentration of 40 μM (0.4% dimethylsulphoxide(DMSO)). After 72 h of incubation, gametocyte inhibition was assessed by luminometry, after addition of Steadylite plus luciferase detection kit (PerkinElmer) to the plate wells[58][59].

[18] = test system: early stage (I–III) gametocytes, NF54^Pfs16; assay: Gametocytocidal activity, luciferase assay; type: cell-based; conditions: Plasmodium falciparum, 72 h
Procedure: as §1

[19] = molecular target: T6, m (MOP) (h) (Homo sapiens, UniProt P35372); assay: Radioligand binding
T6 construct: Cerep
T6 sequence (P35372 whole entry): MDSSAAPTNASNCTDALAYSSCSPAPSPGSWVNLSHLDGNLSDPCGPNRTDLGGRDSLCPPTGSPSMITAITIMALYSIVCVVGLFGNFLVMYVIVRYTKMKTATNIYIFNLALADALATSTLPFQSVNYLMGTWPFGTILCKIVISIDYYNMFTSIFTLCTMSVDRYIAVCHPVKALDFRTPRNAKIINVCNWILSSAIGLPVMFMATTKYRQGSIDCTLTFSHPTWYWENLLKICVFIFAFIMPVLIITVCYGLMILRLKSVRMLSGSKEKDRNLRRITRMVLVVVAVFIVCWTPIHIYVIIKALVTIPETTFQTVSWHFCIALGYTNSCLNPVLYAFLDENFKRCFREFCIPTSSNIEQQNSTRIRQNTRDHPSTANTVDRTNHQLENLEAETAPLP

[20] = molecular target: T7, CCK1 (CCKA) (h) (Homo sapiens, UniProt P32238); assay: Radioligand binding
T7 construct: Cerep (contract study)
T7 sequence (P32238 whole entry): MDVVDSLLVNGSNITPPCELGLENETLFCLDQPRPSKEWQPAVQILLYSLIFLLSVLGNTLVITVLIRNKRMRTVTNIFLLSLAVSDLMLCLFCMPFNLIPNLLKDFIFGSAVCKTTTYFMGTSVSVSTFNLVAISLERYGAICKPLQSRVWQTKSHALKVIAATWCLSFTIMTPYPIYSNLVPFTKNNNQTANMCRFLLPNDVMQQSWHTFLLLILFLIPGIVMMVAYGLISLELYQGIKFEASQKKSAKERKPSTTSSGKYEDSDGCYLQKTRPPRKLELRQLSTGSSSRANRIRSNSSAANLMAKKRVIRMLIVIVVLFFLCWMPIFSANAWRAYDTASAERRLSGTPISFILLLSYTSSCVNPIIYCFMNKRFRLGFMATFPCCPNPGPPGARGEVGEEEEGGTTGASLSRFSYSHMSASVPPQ

[21] = Ames test; conditions: 50 μM
[22] = test system: drug-resistant P. falciparum lab strains other than Dd2; assay: Growth inhibition assay; type: cell-based; conditions: Plasmodium falciparum
[23] = molecular target: T8, Y2 (h) (Homo sapiens, UniProt P49146); assay: Radioligand binding
T8 construct: Cerep
T8 sequence (P49146 whole entry): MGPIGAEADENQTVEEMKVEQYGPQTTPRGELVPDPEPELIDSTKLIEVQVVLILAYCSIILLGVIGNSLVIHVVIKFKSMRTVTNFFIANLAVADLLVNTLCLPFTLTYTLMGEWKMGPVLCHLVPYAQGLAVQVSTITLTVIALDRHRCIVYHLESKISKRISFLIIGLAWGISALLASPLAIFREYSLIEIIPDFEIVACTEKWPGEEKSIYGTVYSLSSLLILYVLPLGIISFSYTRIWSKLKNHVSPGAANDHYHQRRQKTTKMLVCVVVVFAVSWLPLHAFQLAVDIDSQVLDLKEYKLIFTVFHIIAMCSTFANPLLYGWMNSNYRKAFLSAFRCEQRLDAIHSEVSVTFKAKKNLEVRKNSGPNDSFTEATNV

[24] = molecular target: T9, NK3 (h) (Homo sapiens, UniProt P29371); assay: Radioligand binding
T9 construct: Cerep
T9 sequence (P29371 whole entry): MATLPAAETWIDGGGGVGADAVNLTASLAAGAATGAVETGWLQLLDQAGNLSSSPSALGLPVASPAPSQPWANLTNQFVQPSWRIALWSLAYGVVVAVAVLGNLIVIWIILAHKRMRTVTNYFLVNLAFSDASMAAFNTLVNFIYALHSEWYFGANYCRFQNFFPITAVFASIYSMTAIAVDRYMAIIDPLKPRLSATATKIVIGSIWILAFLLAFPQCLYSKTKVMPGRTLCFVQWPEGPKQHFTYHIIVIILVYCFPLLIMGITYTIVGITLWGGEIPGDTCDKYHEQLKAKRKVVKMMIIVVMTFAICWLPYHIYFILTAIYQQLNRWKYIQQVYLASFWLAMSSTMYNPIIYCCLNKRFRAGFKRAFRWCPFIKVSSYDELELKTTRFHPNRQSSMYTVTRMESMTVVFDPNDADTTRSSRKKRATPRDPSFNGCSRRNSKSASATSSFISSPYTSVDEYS

[25] = molecular target: T10, NOP (ORL1) (h) (Homo sapiens, UniProt P41146); assay: Radioligand binding
T10 construct: Cerep
T10 sequence (P41146 whole entry): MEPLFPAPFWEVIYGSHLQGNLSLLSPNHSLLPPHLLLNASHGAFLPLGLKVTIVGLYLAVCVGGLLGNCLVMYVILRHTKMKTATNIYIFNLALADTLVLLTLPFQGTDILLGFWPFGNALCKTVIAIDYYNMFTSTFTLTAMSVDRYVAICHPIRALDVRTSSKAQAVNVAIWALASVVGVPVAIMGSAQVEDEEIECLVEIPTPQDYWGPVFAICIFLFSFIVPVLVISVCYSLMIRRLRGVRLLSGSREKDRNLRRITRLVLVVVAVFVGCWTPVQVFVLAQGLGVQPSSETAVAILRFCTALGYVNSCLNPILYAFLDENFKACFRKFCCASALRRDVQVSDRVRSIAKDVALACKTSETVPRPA

[26] = molecular target: T11, CB1 (h) (Homo sapiens, UniProt P21554); assay: Radioligand binding
T11 construct: Cerep (contract study)

[27] = CYP3A4a, midazolam to 1'-OH-midazolam
[28] = CYP3A4b, testosterone to 6β-OH-testosterone
[29] = CYP3A4c, omeprazole to omeprazole sulphone
[30] = CYP3A4d, omeprazole to 3-OH-omeprazole
[31] = plasma, iv, mouse i.v. 2 mg kg^−1
[32] = plasma, ip, mouse i.p. 20 mg kg^−1

## COC(=O)N1CCN(C(=N)c2cccc(NC(=O)Nc3ccc(S(=O)(=O)NCc4ccc(S(N)(=O)=O)cc4)cc3)c2)CC1 [SC83288, methyl 4-(imino(3-(3-(4-(N-(4-sulfamoylbenzyl)sulfamoyl)phenyl)ureido)phenyl)methyl) piperazine-1-carboxylate]
[1]
  in vitro propagation / cytotoxicity: did not affect
[2]
  remaining after 60 min of incubation: 83%
[3]
  Remaining enzyme activity: 103%
[4]
  Remaining enzyme activity: 91%
[5]
  Inhibition of control specific binding: 0%
[6]
  Inhibition of control specific binding: 1%
[7]
  remaining after 60 min of incubation: 51%
[8]
  Inhibition of control specific binding: 6%
[9]
  IC90: 8 nM
  absolute Hill coefficient: 2.6±0.3
[10]
  Inhibition of control specific binding: 0%
[11]
  Inhibition of control specific binding: -5%
[12]
  Remaining enzyme activity: 89%
[13]; [27]
  Remaining enzyme activity: 92%
[13]; [28]
  Remaining enzyme activity: 88%
[13]; [29]
  Remaining enzyme activity: 87%
[13]; [30]
  Remaining enzyme activity: 92%
[14]; mouse i.v. 2 mg kg^−1
  VC: 0.549 L/kg
[14]; plasma, ip, 10 mg/kg, mice, i.p. 2.5, 5.0 and 10.0 mg kg^−1, read-out: effective half time t1/2
  half-life: 29 to 55 min
[14]; plasma, iv, 2 mg/kg, mouse i.v. 2 mg kg^−1, read-out: t1/2 effective
  half-life: 12 min
[14]; plasma, iv, 2 mg/kg, mouse i.v. 2 mg kg^−1, read-out: t1/2 initial
  half-life: 9 min
[14]; plasma, iv, 2 mg/kg, mouse i.v. 2 mg kg^−1, read-out: t1/2 terminal
  half-life: 43 min
[14]; plasma, ip, mouse i.p. 10 mg kg^−1
  AUC(0-inf): 2020 ng·h/mL
[14]; [31]
  AUC(0-inf): 891 ng·h/mL
  C0: 3640 ng/mL
  Cmax: 2560 ng/mL
  Tmax: 5 min
  clearance: 37.4 mL/min/kg
  MRT last: 16.8 min
[14]
  time of peak plasma concentration (Cmax): ≤ 30 min
[15]
  Inhibition of control specific binding: 70%
[16]
  inhibition potential towards 13 human cytochrome P450 enzymes: low
[17]
  IC50: > 30000 nM
[18]
  IC50: 199 ± 30 nM
[19]
  Inhibition of control specific binding: 25%
[20]
  Inhibition of control specific binding: -5%
[21]
  genotoxicity in a reverse Ames test: no signs of genotoxicity
[22]
  IC50: < 20 nM
[23]
  Inhibition of control specific binding: -4%
[24]
  Inhibition of control specific binding: 5%
[25]
  Inhibition of control specific binding: 10%
[26]
  Inhibition of control specific binding: 1%

## CCCCN1CCN(C(=N)c2cccc(NC(=O)Nc3ccc(S(=O)(=O)NCc4ccc(S(N)(=O)=O)cc4)cc3)c2)CC1 [SC81458, 4-(3-(3-((4-butylpiperazin-1-yl)(imino)methyl)phenyl)ureido)-N-(4-sulfamoylbenzyl) benzenesulfonamide]
[1]
  in vitro propagation / cytotoxicity: did not affect
[2]
  remaining after 60 min of incubation: 37%
[3]
  Remaining enzyme activity: 104%
[4]
  Remaining enzyme activity: 107%
[5]
  Inhibition of control specific binding: 26%
[6]
  Inhibition of control specific binding: 1%
[7]
  remaining after 60 min of incubation: almost completely metabolized
[8]
  Inhibition of control specific binding: 11%
[9]
  IC90: 18 nM
  absolute Hill coefficient: 2.6±0.3
[10]
  Inhibition of control specific binding: 1%
[11]
  Inhibition of control specific binding: -10%
[12]
  Remaining enzyme activity: 95%
[13]; [27]
  Remaining enzyme activity: 74%
[13]; [28]
  Remaining enzyme activity: 77%
[13]; [29]
  Remaining enzyme activity: 66%
[13]; [30]
  Remaining enzyme activity: 98%
[14]; mouse i.p. 20 mg kg^−1
  CL: 4,607 ml h^−1 kg^−1
[14]; plasma, ip, 20 mg/kg, mouse i.p. 20 mg kg^−1, read-out: t1/2 effective
  half-life: 52 min
[14]; plasma, ip, 20 mg/kg, mouse i.p. 20 mg kg^−1, read-out: t1/2 terminal
  half-life: 860 min
[14]; [32]
  AUC(0-inf): 4340 ng·h/mL
  Cmax: 7380 ng/mL
  Tmax: 30 min
  MRT last: 74.4 min
[14]; plasma, ip, mouse i.p. 20 mg kg^−1, read-out: F, relative bioavailability compared to i.v.
  bioavailability: 62%
[14]
  time of peak plasma concentration (Cmax): ≤ 30 min
[15]
  Inhibition of control specific binding: 16%
[16]
  inhibition potential towards 13 human cytochrome P450 enzymes: low
[17]
  IC50: 1800 ± 200 nM
[18]
  IC50: 76 ± 6 nM
[19]
  Inhibition of control specific binding: 24%
[20]
  Inhibition of control specific binding: 0%
[21]
  genotoxicity in a reverse Ames test: no signs of genotoxicity
[22]
  IC50: < 20 nM
[23]
  Inhibition of control specific binding: -20%
[24]
  Inhibition of control specific binding: 6%
[25]
  Inhibition of control specific binding: 2%
[26]
  Inhibition of control specific binding: 21%

Source: publication PMC5290327, “SC83288 is a clinical development candidate for the treatment of severe malaria” (Nature Communications, 2017)
